Experimental data: ChEMBL document CHEMBL3885881, “DrugMatrix”

Organism: Rattus norvegicus
Assay: DrugMatrix - Regimen: Daily Repeat
Format: toxicity, organism-based, Sprague-Dawley
Parameters: regimen Daily Repeat, gender Male, age 6-8 weeks
Conditions: in vivo, sc, route subcutaneous, […]; for ABSOLUTE BASOPHIL / ABSOLUTE EOSINOPHIL / ABSOLUTE LYMPHOCYTE / ABSOLUTE MONOCYTE / ABSOLUTE SEGMENTED NEUTROPHIL / BASOPHIL / EOSINOPHIL / ERYTHROCYTE COUNT / HEMATOCRIT / HEMOGLOBIN / LEUKOCYTE COUNT / LYMPHOCYTE / MEAN CORPUSCULAR HEMOGLOBIN / MEAN CORPUSCULAR HEMOGLOBIN CONCENTRATION / MEAN CORPUSCULAR VOLUME / MONOCYTE / NEUTROPHIL / NUCLEATED RED BLOOD CELLS / PLATELET COUNT: tissue Blood; for ALANINE AMINOTRANSFERASE / ALBUMIN / ALKALINE PHOSPHATASE / ASPARTATE AMINOTRANSFERASE / BLOOD UREA NITROGEN / CARBON DIOXIDE / CHLORIDE / CHOLESTEROL / CREATINE PHOSPHOKINASE / CREATININE / GLUCOSE / LACTATE DEHYDROGENASE / LIPASE / PHOSPHORUS / POTASSIUM / SODIUM / TOTAL BILIRUBIN / TOTAL PROTEIN / URIC ACID: tissue Plasma
[1] = 0 mg/kg, 72 h, dose level Control, time 3 day
[2] = 0 mg/kg, 120 h, dose level Control, time 5 day
[3] = 2 mg/kg, 72 h, dose level Low, time 3 day

CCC(=O)O[C@]1(C(=O)CCl)[C@@H](C)C[C@H]2[C@@H]3CCC4=CC(=O)C=C[C@]4(C)[C@@]3(F)[C@@H](O)C[C@@]21C [CLOBETASOL PROPIONATE]
ABSOLUTE BASOPHIL [1]: 0 CELLS/uL | ABSOLUTE EOSINOPHIL [1]: 42.67 CELLS/uL | ABSOLUTE LYMPHOCYTE [1]: 10202 CELLS/uL | ABSOLUTE MONOCYTE [1]: 261.5 CELLS/uL | ABSOLUTE SEGMENTED NEUTROPHIL [1]: 2193.83 CELLS/uL | BASOPHIL [1]: 0% | EOSINOPHIL [1]: 0.33% | ERYTHROCYTE COUNT [1]: 5.63 x10E6/uL | HEMATOCRIT [1]: 35.35% | HEMOGLOBIN [1]: 13.07 G/DL | LEUKOCYTE COUNT [1]: 12.7 x10E3/uL | LYMPHOCYTE [1]: 81.17% | MEAN CORPUSCULAR HEMOGLOBIN [1]: 23.23 pg | MEAN CORPUSCULAR HEMOGLOBIN CONCENTRATION [1]: 36.97 G/DL | MEAN CORPUSCULAR VOLUME [1]: 62.82 fL | MONOCYTE [1]: 2% | NEUTROPHIL [1]: 16.5% | NUCLEATED RED BLOOD CELLS [1]: 0 /100WBC | PLATELET COUNT [1]: 1180.33 x10E3/uL | ALANINE AMINOTRANSFERASE [1]: 48.67 u/L | ALBUMIN [1]: 4.08 G/DL | ALKALINE PHOSPHATASE [1]: 360.67 u/L | ASPARTATE AMINOTRANSFERASE [1]: 85.5 u/L | BLOOD UREA NITROGEN [1]: 17.83 mg/dL | CARBON DIOXIDE [1]: 26.17 mmol/L | CHLORIDE [1]: 101.83 MEQ/L | CHOLESTEROL [1]: 71 mg/dL | CREATINE PHOSPHOKINASE [1]: 515.17 u/L | CREATININE [1]: 0.22 mg/dL | GLUCOSE [1]: 192.5 mg/dL | LACTATE DEHYDROGENASE [1]: 214.67 u/L | LIPASE [1]: 8.5 u/L | PHOSPHORUS [1]: 12.95 mg/dL | POTASSIUM [1]: 6.39 MEQ/L | SODIUM [1]: 142.38 MEQ/L | TOTAL BILIRUBIN [1]: 0.18 mg/dL | TOTAL PROTEIN [1]: 5.95 G/DL | URIC ACID [1]: 1.83 mg/dL | ABSOLUTE BASOPHIL [2]: 0 CELLS/uL | ABSOLUTE EOSINOPHIL [2]: 188.5 CELLS/uL | ABSOLUTE LYMPHOCYTE [2]: 12360.83 CELLS/uL | ABSOLUTE MONOCYTE [2]: 64.33 CELLS/uL | ABSOLUTE SEGMENTED NEUTROPHIL [2]: 1986.33 CELLS/uL | BASOPHIL [2]: 0% | EOSINOPHIL [2]: 1.33% | ERYTHROCYTE COUNT [2]: 5.52 x10E6/uL | HEMATOCRIT [2]: 35.82% | HEMOGLOBIN [2]: 13.25 G/DL | LEUKOCYTE COUNT [2]: 14.6 x10E3/uL | LYMPHOCYTE [2]: 84.5% | MEAN CORPUSCULAR HEMOGLOBIN [2]: 24.05 pg | MEAN CORPUSCULAR HEMOGLOBIN CONCENTRATION [2]: 36.98 G/DL | MEAN CORPUSCULAR VOLUME [2]: 64.97 fL | MONOCYTE [2]: 0.5% | NEUTROPHIL [2]: 13.67% | NUCLEATED RED BLOOD CELLS [2]: 0 /100WBC | PLATELET COUNT [2]: 1297.83 x10E3/uL | ALANINE AMINOTRANSFERASE [2]: 51.17 u/L | ALBUMIN [2]: 4.08 G/DL | ALKALINE PHOSPHATASE [2]: 393.17 u/L | ASPARTATE AMINOTRANSFERASE [2]: 111 u/L | BLOOD UREA NITROGEN [2]: 18.17 mg/dL | CARBON DIOXIDE [2]: 25 mmol/L | CHLORIDE [2]: 105.17 MEQ/L | CHOLESTEROL [2]: 65.5 mg/dL | CREATINE PHOSPHOKINASE [2]: 911.5 u/L | CREATININE [2]: 0.21 mg/dL | GLUCOSE [2]: 183 mg/dL | LACTATE DEHYDROGENASE [2]: 189 u/L | LIPASE [2]: 8.33 u/L | PHOSPHORUS [2]: 12.78 mg/dL | POTASSIUM [2]: 6.05 MEQ/L | SODIUM [2]: 144.57 MEQ/L | TOTAL BILIRUBIN [2]: 0.25 mg/dL | TOTAL PROTEIN [2]: 5.83 G/DL | URIC ACID [2]: 1.58 mg/dL | ABSOLUTE BASOPHIL [3]: 0 CELLS/uL | ABSOLUTE EOSINOPHIL [3]: 0 CELLS/uL | ABSOLUTE LYMPHOCYTE [3]: 788.33 CELLS/uL | ABSOLUTE MONOCYTE [3]: 9 CELLS/uL | ABSOLUTE SEGMENTED NEUTROPHIL [3]: 1836 CELLS/uL | BASOPHIL [3]: 0% | EOSINOPHIL [3]: 0% | ERYTHROCYTE COUNT [3]: 5.93 x10E6/uL | HEMATOCRIT [3]: 37.1% | HEMOGLOBIN [3]: 13.23 G/DL | LEUKOCYTE COUNT [3]: 2.63 x10E3/uL | LYMPHOCYTE [3]: 30% | MEAN CORPUSCULAR HEMOGLOBIN [3]: 22.33 pg | MEAN CORPUSCULAR HEMOGLOBIN CONCENTRATION [3]: 35.67 G/DL | MEAN CORPUSCULAR VOLUME [3]: 62.57 fL | MONOCYTE [3]: 0.33% | NEUTROPHIL [3]: 69.67% | NUCLEATED RED BLOOD CELLS [3]: 0 /100WBC | PLATELET COUNT [3]: 1219.67 x10E3/uL | ALANINE AMINOTRANSFERASE [3]: 121.33 u/L | ALBUMIN [3]: 4.93 G/DL | ALKALINE PHOSPHATASE [3]: 505.33 u/L | ASPARTATE AMINOTRANSFERASE [3]: 281.67 u/L | BLOOD UREA NITROGEN [3]: 25.67 mg/dL | CARBON DIOXIDE [3]: 21.33 mmol/L | CHLORIDE [3]: 99.33 MEQ/L | CHOLESTEROL [3]: 138.33 mg/dL | CREATINE PHOSPHOKINASE [3]: 1714.67 u/L | CREATININE [3]: 0.33 mg/dL | GLUCOSE [3]: 547 mg/dL | LACTATE DEHYDROGENASE [3]: 291 u/L | LIPASE [3]: 10 u/L | PHOSPHORUS [3]: 12.6 mg/dL | POTASSIUM [3]: 5.98 MEQ/L | SODIUM [3]: 140.33 MEQ/L | TOTAL BILIRUBIN [3]: 0.2 mg/dL | TOTAL PROTEIN [3]: 7.07 G/DL | URIC ACID [3]: 2.33 mg/dL
